# Tested on: calf thymus double stranded DNA and ribosomal RNA
# Assay: Determination of DNA/RNA fluorescence ratios
# Format: binding
# Details: for DNA/RNA (fluorescence ratio): 65 ug/mL calf thymus dsDNA vs 65 ug/mL ribosomal RNA, 10 mM Tris, 1 mM EDTA pH 7.5, ratio of 1 = no selectivity; for ex/em: emission: emission value, second number of ex/em cell; for ex/em: excitation: excitation value, first number of ex/em cell
# Procedure: The tested compound was dissolved as a stock solution in DMSO at a concentration of about 0.1-1.0 mg/mL. The exact concentration is not critical. Three tubes are prepared, each containing the same 1-20 uL of stock solution. The first tube contained 10 mM Tris, 1 mM EDTA (pH 7.5) buffer; the second tube contained buffer and 65 ug/mL calf thymus double stranded DNA; and the third tube contained buffer and 65 ug/mL ribosomal RNA. The tubes were incubated at room temperature for 10-15 minutes with protection from light.
# In some cases, it was necessary to dilute the sample to keep the fluorescence signal on-scale. In these cases, all three samples were diluted to the same degree. The ratio of the fluorescence of the compound in the presence of DNA and RNA was determined.
# The following compounds were selected as representative of the inventive class of compounds. The fluorescence values in the presence of DNA and RNA were determined as described in the previous Example. […] A ratio of 1 would indicate no selectivity. Excitation and emission values are in nm
SMILES,ex/em: emission [nm],ex/em: excitation [nm],DNA/RNA (fluorescence ratio)
COc1cccc(OC)c1-c1ccc2c(c1)sc(C=C1C=C(n3ccnc3)N(Cc3ccccc3)c3ccccc31)[n+]2C [Compound 19],553,525,7.3
COc1cccc(OC)c1-c1ccc2c(c1)sc(C=C1C=C(N3CCNCC3)N(Cc3ccccc3)c3ccccc31)[n+]2C [Compound 21],534,510,5.4
CCN(CC)Cc1ccc(C2=CC(=Cc3sc4cc(-c5c(OC)cccc5OC)ccc4[n+]3C)c3ccccc3N2Cc2ccccc2)cc1 [Compound 25],559,518,9
COc1cccc(OC)c1-c1ccc2c(c1)sc(C=C1C=CN(Cc3ccc(CN4CCN(C)CC4)cc3)c3ccccc31)[n+]2C [Compound 44],540,510,22
COc1cccc(OC)c1-c1ccc2c(c1)sc(C=C1C=CN(Cc3ccc(CN4CCOCC4)cc3)c3ccccc31)[n+]2C [Compound 45],541,511,13.2
COc1cccc(OC)c1-c1ccc2c(c1)sc(C=C1C=CN(Cc3ccc(C[N+](C)(C)CCCN(C)C)cc3)c3ccccc31)[n+]2C [Compound 46],542,512,11.5
COc1cccc(OC)c1-c1ccc2c(c1)sc(C=C1C=CN(Cc3ccc(C[N+](C)(C)C)cc3)c3ccccc31)[n+]2C [Compound 48],540,513,7.3
COc1cccc(OC)c1-c1ccc2c(c1)sc(C=C1C=CN(Cc3ccc(C[N+](C)(C)CCC[N+](C)(C)C)cc3)c3ccccc31)[n+]2C [Compound 49],542,520,18
COc1cccc(OC)c1-c1ccc2c(c1)sc(C=C1C=CN(Cc3ccccc3)c3ccccc31)[n+]2C [Compound 53],540,510,60
COc1cccc(OC)c1-c1ccc2c(c1)sc(C=C1C=CN(Cc3ccncc3)c3ccccc31)[n+]2C [Compound 55],541,513,10.9
COc1cccc(OC)c1-c1ccc2c(c1)sc(C=C1C=CN(Cc3cc[n+](C)cc3)c3ccccc31)[n+]2C [Compound 56],545,515,3.7
COc1cccc(OC)c1-c1ccc2c(c1)sc(C=C1C=CN(CCc3ccccc3)c3ccccc31)[n+]2C [Compound 62],539,510,48
COc1cccc(OC)c1-c1ccc2c(c1)sc(C=C1C=CN(C)c3ccccc31)[n+]2C [Compound 65],536,506,11.3
Cc1cccc(C)c1-c1ccc2c(c1)sc(C=C1C=C(N(C)CCCN(C)C)N(c3ccccc3)c3ccccc31)[n+]2C [Compound 69],523,494,3.2
C[n+]1c(C=C2C=CN(Cc3ccccc3)c3ccccc32)oc2ccc(-c3ccccc3)cc21 [Compound 89],512,485,1.8

# Continued, in another order:
ex/em: emission [nm],ex/em: excitation [nm],SMILES,DNA/RNA (fluorescence ratio)
532,504,CCCN(CCCN(C)C)C1=CC(=Cc2sc3cc(-c4c(OC)cccc4OC)ccc3[n+]2C)c2ccccc2N1Cc1ccccc1 [Compound 16],15.2
533,505,COc1cccc(OC)c1-c1ccc2c(c1)sc(C=C1C=C(N(C)CCN(C)C)N(Cc3ccccc3)c3ccccc31)[n+]2C [Compound 18],3.5
534,505,CNCCN(C)C1=CC(=Cc2sc3cc(-c4c(OC)cccc4OC)ccc3[n+]2C)c2ccccc2N1Cc1ccccc1 [Compound 22],4.7
529,500,CNCCCN(C)C1=CC(=Cc2sc3cc(-c4c(OC)cccc4OC)ccc3[n+]2C)c2ccccc2N1Cc1ccccc1 [Compound 23],3.8
541,505,CCCCC1=CC(=Cc2sc3cc(-c4c(OC)cccc4OC)ccc3[n+]2C)c2ccccc2N1Cc1ccccc1 [Compound 26],36
527,497,CCCN(CCCN(C)C)C1=CC(=Cc2sc3cc(-c4c(OC)cccc4OC)ccc3[n+]2C)c2ccccc2N1c1ccccc1 [Compound 28],6.5
527,495,CCCN(CCCN(C)C)C1=CC(=Cc2sc3cc(-c4c(OC)cccc4OC)ccc3[n+]2C)c2ccccc2N1C [Compound 30],5.7
534,505,CCCN(CCC[N+](C)(C)C)C1=CC(=Cc2sc3cc(-c4c(OC)cccc4OC)ccc3[n+]2C)c2ccccc2N1Cc1ccccc1 [Compound 31],10.5
517,498,COC1=CC(=Cc2sc3cc(-c4c(OC)cccc4OC)ccc3[n+]2C)c2ccccc2N1Cc1ccccc1 [Compound 32],36
532,503,C#CCN1C(N(CCC)CCCN(C)C)=CC(=Cc2sc3cc(-c4c(OC)cccc4OC)ccc3[n+]2C)c2ccccc21 [Compound 34],5.8
522,497,CCCN(CCCN(C)C)C1=CC(=Cc2sc3cc(-c4c(OC)cccc4OC)ccc3[n+]2C)c2ccc(OC)cc2N1Cc1ccccc1 [Compound 38],13
536,507,CCCN(CCCN(C)C)C1=CC(=Cc2sc3cc(-c4c(OC)cccc4OC)ccc3[n+]2C)c2cc(OC)ccc2N1Cc1ccccc1 [Compound 39],6.1
541,512,COc1cccc(OC)c1-c1ccc2c(c1)sc(C=C1C=CN(Cc3ccc(CN(C)CCCN(C)C)cc3)c3ccccc31)[n+]2C [Compound 47],8.6
536,506,CCCCn1cc(N2C(N(CCC)CCCN(C)C)=CC(=Cc3sc4cc(-c5c(OC)cccc5OC)ccc4[n+]3C)c3ccccc32)nn1 [Compound 57],3.8
523,498,CCCN(CCCN(C)C)C1=CC(=Cc2sc3cc(-c4c(C)cccc4C)ccc3[n+]2C)c2ccccc2N1c1ccccc1 [Compound 68],7
524,501,Cc1cccc(C)c1-c1ccc2c(c1)sc(C=C1C=C(N(C)CCCN(C)C)N(Cc3ccccc3)c3ccccc31)[n+]2C [Compound 70],2.7
